Experimental data published in patent US12559504B2, “Benzotriazole derivative” (UBE CORPORATION, priority 2019, dated 2026).

Tests used:
[1] = target: T1, GST fusion human Keap1 (amino acid residue: 325-624) protein (Homo sapiens, UniProt Q14145); assay: Keap1-Nrf2 binding inhibition test (fluorescence polarization); details: compound concentration of 100 nM; read-out: inhibition rate
T1 construct: GST fusion human Keap1 (amino acid residue: 325-624) protein; purchased Protein tech Ag0779
Method: The inhibitory activity of each test compound on the binding between Nrf2 and Keap1 was measured by the fluorescence polarization method. A solution consisting of 20 mM tris-hydrochloride pH7.5 (NIPPON GENE CO., LTD., REF: 318-90225), 150 mM NaCl [FUJIFILM Wako Pure Chemical. Corporation, REF: 191-01665], 0.05% Tween 20 (BioRAD, REF: 161-0781), and 5 mM DTT (FUJIFILM Wako Pure Chemical Corporation, REF: 049-08972) was used as a buffer solution. To a test compound solution (70 μL) adjusted to each concentration with 10% DMSO (FUJIFILM Wako Pure Chemical Corporation, REF: 043-07216) was added a buffer solution (350 μL) comprising 6 nM FITC-labeled Nrf2 peptide (FITC-Ahx-LDEETGEFL-NH2, Invitrogen) and 0.2 mg/mL of BSA (FUJIFILM Wako Pure Chemical Corporation, REF: 017-22231). Each 120 μL of the resulting mixture was dispensed into a black 96 well plate, and a buffer solution (80 μL) comprising 2.5 nM GST fusion human Keap1 (amino acid residue: 325-624) protein (Protein tech, REF: Ag0779) was added thereto. A Keap1-free buffer solution was added to some wells to prepare negative controls. Meanwhile, compound-free wells were used as positive controls. The plate was incubated at room temperature for 30 minutes, and each fluorescence polarization at excitation wavelength of 482 nm and fluorescence wavelength of 530 nm was measured by using a plate reader Clariostar (BMG Labtech). The fluorescence polarization of the negative control was set to be 100% inhibition, fluorescence polarization of the positive control was set to be 0% inhibition, and the inhibition rate of each test compound at 100 nM was calculated by using the following equation. Inhibition rate (%)=100−((Fluorescence polarization when test compound was added−Fluorescence polarization of negative control)/(Fluorescence polarization of positive control−Fluorescence polarization of negative control))×100

NQO1 [2] = assay: NQO1 enzyme induction test (in vitro) in Hepa1c1c7 cells; assay type: cell-based; details: Mus musculus, Hepa-1c1c7, 48 h, concentration to elevate the NQO1 activity by 1.5 times, about 48 hours, read-out: EC150
Method: Each NQO1 assay was carried out by modifying a known method (Anal Biochem 1998; 169: 328-, Methods Enzymol 2004; 382: 243-). Hepa1c1c7 cells (mouse hepatocyte line manufacture by DS Pharma Biomedical Co., Ltd., REF. No. 95090613) were cultured (5% CO2, 37° C.). The cells were cultured in MEMα (manufactured by FUJIFILM Wako Pure Chemical Corporation, REF. 135-15175) medium comprising 10% FBS (manufactured by GIBCO, REF. 10082) and […]/streptomycin/amphotericin B (manufactured by GIBCO, REF. 15240), and dispensed into a 96 well plate (manufactured by Costar, REF. 3610) at 2.0×10^3 cells/well. On the next day, test compound (final concentration of […]: 0.1%) dissolved into DMSO (manufactured by FUJIFILM Wako Pure Chemical Corporation, REF. 043-07216) was added to each well, and the plate was further cultured for about 48 hours.
A cell lysate manufactured by Cell signaling Technology, Inc. (REF. 9803) with the addition of a Protease Inhibitor manufactured by Roche Diagnostics K.K. (REF. 11-873580001) was used. A reaction solution (which is a solution comprising trishydrochloric acid (25 mM), albumin […], Tween-20 (0.01%), glucose-6-phosphate dehydrogenase (2 U/mL), flavin-adenine dinucleotide (5 μM), glucose-6-phosphate (1 μM), nicotinamide adenine dinucleotide phosphate (30 μM), 3-(4,5-dimethyl-2-thiazolyl)-2,5-diphenyltetrazolium bromide (MTT) (0.03%), and menadione (50 μM)), and a stop solution (which is a solution comprising dicumarol (0.3 mM) and potassium dihydrogen phosphate (5 mM), pH 7.4) were prepared. After the medium was removed, cell lysate (50 μL) was added thereto, and the resulting mixture was shaken at room temperature for 20 minutes. The reaction solution (200 μL) was added thereto, and the resulting mixture was left to stand at room temperature for 5 minutes. The stop solution (50 μL) was added thereto, and absorbance at 540 nm (reference 750 nm) was measured.
Cell number was measured by Cell Titer Glo assay (manufactured by Promega Corporation, REF. G9242) by using another plate prepared according to the same conditions as those described above, and correction of absorbance was carried out. The test result was analyzed by Excel, and the EC150 value which is the concentration to elevate the NQO1 activity by 1.5 times was calculated.

NQO1 [3] = assay: NQO1 expression induction test in mouse kidney (single administration); assay type: in vivo; details: Mus musculus, po, 6 h, BALB/c mouse kidney, 6 hours after administration, ratio to control group
Method: Each test compound solution for administration was prepared by dissolving or suspending each test compound into a 0.5 w/v % aqueous solution of methylcellulose (0.5% MC) (manufactured by Wako Pure Chemical Industries, Ltd.).
Each prepared test compound was orally administered to a BALB/c mouse (female, provided by Charles River Laboratories Japan, Inc.). Non-treated group was used as a control group. After 6 hours from the administration, each mouse was anesthetized with isoflurane, and euthanized with bloodletting by incising a lower aorta. Immediately, the left kidney was excised, cut into small pieces, and then the cut kidney pieces were transferred to RNA later (Thermo Fisher Scientific).
Then, mRNA was extracted from the collected kidney pieces by using NucleoSpin (registered trademark) RNA Kit (Takara Bio Inc.), each concentration was quantified by FlexStation3 (Molecular Devices), and then the concentration was adjusted to a constant concentration. A reverse transcription synthesis of cDNA was carried out from the mRNA with the constant concentration by using PrimeScript™ RT reagent Kit with gDNA Eraser and PCR Thermal Cycler (Takara Bio Inc.). Then, in addition to the resulting cDNA, SYBR (registered trademark) Premix Ex Taq™ II and NQO1, GAPDH primer (Takara Bio Inc.) were used to carry out Real-time PCR by PCR Thermal Cycler Dice Real time (Takara Bio Inc.), and the NQO1 expression was quantified by using the GAPDH expression as the reference.
In order to evaluate the NQO1 expression induction in each group, the NQO1 expression induction ratio was calculated by using the following equation. (NQO1 expression induction ratio)=(Average NQO1 expression in test compound administered group)[…](Average NQO1 expression in control group)

[4] = Metabolism test using human liver microsome fractions; assay type: in vitro ADME; details: human liver microsomes, test compound 10 μmol/L, NADPH and UDP-glucuronic acid, 37° C.
Method: A reaction composition solution (comprising NADPH Regenerating System, Solution A (manufactured by Corning Inc., REF. 451220) (50 μL), NADPH Regenerating System, Solution B (manufactured by Corning Inc., REF. 451200) (10 μL), 250 mM UDP-glucuronic acid (40 μL), UGT Reaction Mix Solution B (manufactured by Corning Inc., REF. 451320) (200 μL), and distilled water (640 μL)) in which human liver microsomes (manufactured by Xenotech, Cat. No. H610) or monkey liver microsomes (manufactured by Xenotech, Cat. No. P2000) (corresponding to 1 mg of protein) were suspended was prepared. After the solution was incubated at 37° C. for 5 minutes, each test compound dissolved into DMSO (manufactured by FUJIFILM Wako Pure Chemical Corporation, Code No. 043-07216) was added to the solution so that the final concentration was set to be 10 μmol/L, and a reaction was initiated. After 0, 5, 10, 15, 20, and 30 minute(s) from the initiation of the metabolism reaction, 100 μL of the reaction solution was taken out of the reaction system, and added to 200 μL of acetonitrile to stop the reaction. After the reaction was completed, the reaction solution was subjected to a work-up such as deproteinization, and then subjected to an UV-HPLC analysis to carry out the following analysis.
The peak area of each test compound was calculated by LabSolution software (Shimadzu Corporation), and the residual ratio (%) at each culture time of test material was calculated by the following equation. Residual ratio (%)=Peak area at each culture time[…]Peak area at 0 (initial time)
Next, the residual amount (nmol/mg/mL) at each culture time of test material was calculated by the following equation. Residual amount (nmol/mg/mL)=Initial concentration of reaction solution (10 nmol/mg/mL)×residual ratio÷100
Finally, a graph in which the reaction time was plotted at horizontal axis and the residual amount was plotted at longitudinal axis was prepared on Excel, and the inclination was calculated as the elimination rate (pmol/min/mg-P) within the time range in which the graph was deemed linear.

T1 sequence (Q14145 325-624): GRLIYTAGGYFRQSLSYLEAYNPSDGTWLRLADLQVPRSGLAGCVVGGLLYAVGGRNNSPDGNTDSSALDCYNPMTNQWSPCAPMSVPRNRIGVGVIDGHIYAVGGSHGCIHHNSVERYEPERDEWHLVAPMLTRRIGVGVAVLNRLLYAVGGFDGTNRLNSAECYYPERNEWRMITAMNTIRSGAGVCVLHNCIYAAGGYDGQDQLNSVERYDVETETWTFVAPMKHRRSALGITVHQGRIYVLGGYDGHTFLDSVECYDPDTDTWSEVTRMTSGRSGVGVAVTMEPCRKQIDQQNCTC

SMILES	inhibition at 0.1 µM [1]	EC (1.5-fold NQO1 activity) (NQO1 [2])	fold induction at 30 mg/kg (NQO1 [3])	Human metabolic rate [4]	fold induction at 20 mg/kg (NQO1 [3]; Dose 20 mg/kg)
CC[C@@H]1CN(Cc2cc(C(c3ccc4c(nnn4C)c3C)C(C)(C)C(=O)O)ccc2C)Cc2cc3cc(C)ccc3nc2O1 (stereo partly drawn) [Example 14-(b), 3-(1,4-dimethyl-1H-benzo[d][1,2,3]triazol-5-yl)-3-(3-(((R)-2-ethyl-8-methyl-2,3-dihydro-[1,4]oxazepino[7,6-b]quinolin-4 (5H)-yl)methyl)-4-methylphenyl)-2,2-dimethylpropanoic Acid]	≥ 50%	0.0005 to 0.005 µM	> 6	–	–
CC[C@@H]1CN(Cc2cc(C(c3ccc4c(nnn4C)c3C)C(C)(C)C(=O)O)ccc2C)Cc2c(ccc3cn[nH]c23)O1 (stereo partly drawn) [Example 20-(b), 3-(1,4-dimethyl-1H-benzo[d][1,2, 3]triazol-5-yl)-3-(3-(((R)-7-ethyl-1,7,8,10-tetrahydro-9H-[1,4]oxazepino[7,6-g]indazol-9-yl)methyl)-4-methylphenyl)-2,2-dimethylpropanoic Acid]	≥ 50%	0.0005 to 0.005 µM	–	D (200≤metabolic rate<250 pmol/min/me protein)	–
CC[C@@H]1CN(Cc2cc(C(c3ccc4c(nnn4C)c3C)C(C)(C)C(=O)O)ccc2C)CC2=C(C=CC3=NCCCN32)O1 (stereo partly drawn) [Example 23, 3-(1,4-dimethyl-1H-benzo[d][1,2,3]triazol-5-yl)-3-(3-(((R)-4-ethyl-1,3,4,9,10,11-hexahydro-2H-pyrimido[1′,2′:1,6]pyrido[2,3-f][1,4]oxazepin-2-yl)methyl)-4-methylphenyl)-2,2-dimethylpropanoic Acid]	≥ 50%	0.05 to 0.5 µM	≤ 3	–	–
CC[C@@H]1CN(Cc2cc(C(c3ccc4c(nnn4C)c3C)C(C)(C)C(=O)O)ccc2C)Cc2ccc3ccccc3c2O1 (stereo partly drawn) [Example 24-(b), 3-(1,4-dimethyl-1H-benzo[d][1,2,3]triazol-5-yl)-3-(3-(((R)-2-ethyl-2,3-dihydronaphtho[2,1-f][1,4]oxazepin-4(5H)-yl)methyl)-4-methylphenyl)-2,2-dimethylpropanoic Acid]	≥ 50%	0.005 to 0.05 µM	> 6	–	–
CC[C@@H]1CN(Cc2cc(C(c3ccc4c(nnn4C)c3C)C(C)(C)C(=O)O)ccc2C)Cc2ccc3cccnc3c2O1 (stereo partly drawn) [Example 27-(b), 3-(1,4-dimethyl-1H-benzo[d][1,2,3]triazol-5-yl)-3-(3-(((R)-2-ethyl-2,3-dihydro-[1,4]oxazepino[6,7-h]quinolin-4 (5H)-yl)methyl)-4-methylphenyl)-2,2-dimethylpropanoic Acid]	≥ 50%	0.005 to 0.05 µM	≤ 3	–	–
CC[C@@H]1CN(Cc2cc(C(c3ccc4c(nnn4C)c3C)C(C)(C)C(=O)O)ccc2C)Cc2ccc3ncccc3c2O1 (stereo partly drawn) [Example 28-(b), 3-(1,4-dimethyl-1H-benzo[d][1,2,3]triazol-5-yl)-3-(3-(((R)-2-ethyl-2,3-dihydro-[1,4]oxazepino[7,6-f]quinolin-4(5H)-yl)methyl)-4-methylphenyl)-2,2-dimethylpropanoic Acid]	≥ 50%	0.0005 to 0.005 µM	3 to 6	–	–
CC[C@@H]1CN(Cc2cc(C(c3ccc4c(nnn4C)c3C)C(C)(C)C(=O)O)ccc2C)Cc2cc3[nH]ncc3cc2O1 (stereo partly drawn) [Example 64-(b), 3-(1,4-dimethyl-1H-benzo[d][1,2,3)triazol-5-yl)-3-(3-(((R)-6-ethyl-1,6,7,9-tetrahydro-8H-(1,4]oxazepino[7,6-f]indazol-8-yl)methyl)-4-methylphenyl)-2,2-dimethylpropanoic Acid]	≥ 50%	0.005 to 0.05 µM	–	B (100≤metabolic rate<150 pmol/min/mg protein)	–
CC[C@@H]1CN(Cc2cc(C(c3ccc4c(nnn4C)c3C)C3(C(=O)O)CCCC3)ccc2C)Cc2cc3ncccc3cc2O1 (stereo partly drawn) [Example 83-(b), 1-((1,4-dimethyl-1H-benzo[d][1,2,3]triazol-5-yl) (3-(((R)-2-ethyl-2,3-dihydro-[1,4]oxazepino[7,6-g]quinolin-4 (5H)-yl)methyl)-4-methylphenyl)methyl)cyclopentane-1-carboxylic Acid]	–	0.005 to 0.05 µM	–	C (150≤metabolic rate<200 pmol/min/mg protein)	> 6
